# Results: patent US8921356B2, “Compositions comprising nicotinic agonists and methods of using same” (priority 2007, dated 2014)
# What was measured:
# rats [1] = assay: Nicotine-induced hypothermia in rats; format: in vivo, rat
# Experimental: (§1) (ii) Animals—Young adult (240 g-290 g) male Sprague-Dawley rats (Charles River, USA or Harlan, Israel) were used in the experiments.
# (iv) Determination of nicotine-induced hypothermia—Rats were placed individually in experimental cages kept at 25° C. and were allowed to rest for 1 h before drug injection. During this period, body temperature was measured at 15- or 30-min intervals in order to exclude the effect of handling on animal temperature. Body temperature was measured with a rectal thermistor probe (M.R.C, Israel, sensitivity 0.1° C.). The probe was lubricated with petroleum before being inserted into the rectum to a depth of 2 cm. The data are presented as changes in rectal temperature from the basal values. Basal values are those taken immediately before the drug injection (time 0).
# Rats were divided into three treatment groups, each of 5 rats, as follows: 1. treatment with nicotine (2 mg/kg); 2. treatment with opipramol (20 mg/kg); 3. treatment with opipramol (20 mg/kg) together with nicotine (2 mg/kg). Rats were injected with nicotine twice on the first day (FIG. 3A, D-1, left panel) and three times on days 2 (FIG. 3A, D-2, middle panel) and 3 (FIG. 3A, D-3, right panel). […] Nicotine was injected with and without opipramol, and body temperature was measured at 30 min intervals. […] FIG. 3A: Each point is the Mean±S.E.M. of change in body temperature compared to the temperature measured at time 0 (before the first injection) for at least five rats. FIG. 3B depicts a bar histogram representing mean±S.E.M. of the maximum change in body temperature compared to the temperature measured just before the injection.
# The body temperature (0 C) was measured 30 min post injection. FIG. 7 depicts the maximum decrease in body temperature after each injection.
# Nicotine (2 mg/kg), lidocaine (15 mg/kg), and nicotine+lidocaine (2 mg/kg+15 mg/kg) were administered to rats 2× day for two days, following the above protocol.
# nAChR = assay: Nicotine-induced 45Ca2+ uptake (calcium influx) in SK-N-SH human neuroblastoma cells; format: cell-based
# Experimental: (i) Cells—SK-N-SH human neuroblastoma cell line was obtained from the American Type Culture Collection (ATTC).
# SK-N-SH human neuroblastoma cells, known to express nAChR, were grown in Dulbecco/Vogt Modified Eagle's Minimal Essential Medium (DMEM) to confluency in a 24-well plate. DMEM containing 45Ca^2+ without any other addition (1) or with 50 μM nicotine (2) or with 50 μM nicotine+10 μM opipramol (3) was added to cells grown in 24-well plates and preincubated with medium alone for 15 minutes, then washed rapidly. Intra cellular radioactivity was determined for each condition. The same medium with nicotine was added also to cells that were preincubated for 15 minutes with either 50 μM nicotine alone (4) or with 50 μM nicotine+10 μM opipramol (5). 45Ca2+ uptake was determined after 10 min. Activation of the nicotinic receptors causes calcium influx so it is a measure of the nicotinic receptor activity.
# [2] = test system: smooth muscle of a guinea pig ileum; assay: Nicotine-induced smooth muscle contraction in the guinea pig ileum preparation
# Experimental: The free end of a smooth muscle of a guinea pig ileum was attached to a force displacement transducer. Isometric tension of the smooth muscle was continuously monitored by outputting the preamplified transducer signal to a computer.
# The ileum preparation was washed by physiological solution 10 min after the addition of nicotine and then nicotine at a final concentration of 25 μM was added again to the muscle preparation for additional 10 min (2nd stimulation; bar 3).
# rats [3] = assay: Elevated plus maze (EPM) anxiety test in rats; format: in vivo, rat
# Text: as §1
# (v) Elevated […] Maze (EPM)—The purpose of the EPM is to determine the anxiolytic effects of tested drugs. The time that the experimental animals spend in the open arm of the maze is an indication for the anxiolytic effect, the longer the time the higher the anxiolytic effect. The EPM is a wooden, cross-shaped device, consisting of four arms arranged in the shape of a plus sign. Two of the arms have no side or end walls (open-arms; 30×5×0.25 cm). The other two arms have side walls and end walls, but are open on top (closed arms; 30×5×15 cm). The maze is elevated to a height of 50 cm. The animals are kept in a relatively dark box before exposure to the maze in order to increase their exploratory behavior. The tests were done in a silent environment under dim light. The animals were carried to the laboratory and left there undisturbed for 1 h before the experiment.
# This test is used to assess anxiety. Rats were randomly assigned into five groups each containing 5 animals and then tested in an Elevated Plus Maze (EPM). In the first (control) group, rats were injected with saline once a day; in the second group rats were injected with nicotine (0.5 mg/kg or 2 mg/kg) three times a day and were tested in the maze after the third injection; in the third group rats were injected with opipramol (10 mg/kg) three times a day and then were tested in the maze; in the fourth group, rats were injected with opipramol (10 mg/kg) or galantamine (5 mg/kg), and nicotine (2 mg/kg or 0.5 mg/kg) three times a day and were tested in the maze after the last injection. The behavioral response to nicotine in the EPM was assessed 30 min after the first injection, and then again 30 minutes after the third injection.
# BDNF mRNA = BDNF mRNA expression in rat cerebral cortex; format: in vivo
# Experimental: Nicotine alone (0.5 mg/kg) or opipramol (10 mg/kg) or nicotine (0.5 mg/kg)+opipramol (10 mg/kg) were injected intraperitoneally (ip) to rats (5 per group) at intervals of 2 hours during a single day. The drugs were dissolved in saline and used in the same day. […] Animals were sacrificed 90 min after each injection and brain derived neurotrophic factor (BDNF) and β-actin mRNA were determined in homogenates of the cerebral cortex of each animal.
# Homogenates of the cerebral cortex were prepared as follows: Rat brain tissues were sonicated for 15 sec and total RNA was obtained using the Trizol Reagent (Molecular Research Center, Cincinnati, Ohio, USA), according to the manufacturer's instructions. RNA concentrations were quantified by measuring the absorbances at 260 and 280 nm. RNA was reverse transcribed into cDNA during 45 min at 42° c. The cDNA products were diluted 1:40 for BDNF and 1:1000 for β-actin (a housekeeping gene for internal standard). In order to amplify gene specific sequences, PCR techniques were applied using ReadyMix PCR Master Mix (AB-genes, Surrey, UK) and specific primer sequences for BDNF and beta actin. The products were separated by electrophoresis on agarose and quantification of the bands was done by an image analyzer.
compound,measurement,setting,value
CN(C)CCCN1c2ccccc2CCc2ccc(Cl)cc21 [clomipramine],hypothermic effect of nicotine,"rats [1]; clomipramine 30 mg/kg with nicotine 2 mg/kg, consecutive injections 2 h apart",no further reduction in the hypothermic effect
same,hypothermic effect of nicotine,"rats [1]; clomipramine 30 mg/kg with nicotine 2 mg/kg, first injection",inhibited to some extent the effect of nicotine
"CN1CCC[C@H]1c1cccnc1 [nicotine, S-3-(1-methyl-2-pyrrolidinyl)pyridine]",calcium influx (45Ca2+ uptake),"nAChR; first exposure to 50 μM nicotine, compared to basal uptake, SK-N-SH cells",caused an increase in calcium influx
same,calcium influx (45Ca2+ uptake),nAChR; second exposure to 50 μM nicotine after 15 min preincubation with nicotine alone,considerably reduced
same,muscle contraction,"[2]; 1st stimulation, 25 μM nicotine alone",caused muscle contraction
same,muscle contraction,[2]; 2nd stimulation with 25 μM nicotine after 1st stimulation with nicotine alone,did not induce muscle contraction
same,hypothermic effect,"rats [1]; nicotine 2 mg/kg alone, 2x day for two days",loss of the hypothermic effect
same,hypothermic effect (maximum decrease in body temperature),"rats [1]; nicotine 2 mg/kg alone, 3 injections 2 h apart",gradual decrease in the hypothermic effect
same,magnitude of the decrease in body temperature,"rats [1]; nicotine 2 mg/kg repeatedly injected for three consecutive days, P<0.05",became progressively smaller
same,anxiolytic effect (time in open arm),"rats [3]; nicotine alone, 0.5 mg/kg and 2 mg/kg, second injection",did not induce an anxiolytic effect
same,time spent in the open arm (anxiolytic effect),rats [3]; one injection of nicotine,significantly increased
same,BDNF mRNA level (ratio to β-actin),"BDNF mRNA; nicotine 0.5 mg/kg ip alone, repeated (third) injection",much smaller rise
same,BDNF mRNA level (ratio to β-actin),"BDNF mRNA; nicotine 0.5 mg/kg ip, first injection",increased
CCN(CC)CC(=O)Nc1c(C)cccc1C [lidocaine],hypothermic effect of nicotine,"rats [1]; lidocaine 15 mg/kg + nicotine 2 mg/kg, 2x day for two days",maintained the hypothermic effect of nicotine
OCCN1CCN(CCCN2c3ccccc3C=Cc3ccccc32)CC1 [opipramol],calcium uptake (45Ca2+),"nAChR; first stimulation with 50 μM nicotine in the presence of 10 μM opipramol, compared to nicotine alone",only slightly smaller
same,nAChR desensitization (45Ca2+ uptake at second nicotine stimulation),nAChR; second stimulation with 50 μM nicotine after 15 min preincubation with 50 μM nicotine + 10 μM test drug,remarkedly reduced
same,effect of nicotine (muscle contraction) relative to that induced by nicotine alone,"[2]; 1st stimulation, 25 μM nicotine in the presence of 10 μM opipramol",about 50%
same,muscle contraction response to nicotine,[2]; 2nd stimulation with 25 μM nicotine after 1st stimulation in the presence of opipramol,almost full response
same,duration of the effect of nicotine (muscle contraction),"[2]; nicotine administered together with opipramol, until removal by washing, data not shown",maintained steady for one hour
same,change in body temperature,rats [1]; opipramol 20 mg/kg alone,only a slight decrease in body temperature
same,magnitude of the reduction in body temperature,"rats [1]; opipramol 20 mg/kg together with nicotine 2 mg/kg, second and third day, after second and third injections, P<0.001",significantly larger than that induced by nicotine alone
same,anxiolytic effect (time in open arm),"rats [3]; nicotine 0.5 mg/kg together with opipramol 10 mg/kg or galantamine 5 mg/kg, second injection",the anxiolytic effect was seen in the second injection
same,anxiolytic effect (time in open arm),rats [3]; nicotine 2 mg/kg together with opipramol 10 mg/kg or galantamine 5 mg/kg,inhibited desensitization
same,BDNF mRNA level (ratio to β-actin),"BDNF mRNA; nicotine 0.5 mg/kg + opipramol 10 mg/kg ip, third injection",rising even above that which was observed with nicotine alone
same,BDNF mRNA level (ratio to β-actin),"BDNF mRNA; opipramol 10 mg/kg ip alone, third injection",no effect
